What was measured:
Experiment in all cases: KINOMEscan
Assay type in all cases: binding
AAKI = AAKI (Homo sapiens (Human), UniProt Q2M2I8); settings: read-out: percent of control
Procedure: (§1) In vitro profiling of Compound I-2 (1 μM) was performed using the DiscoveRx KINOMEscan® platform.

ANKK1 = ANKK1 (Homo sapiens (Human), UniProt Q8NFD2); settings: read-out: percent of control
Procedure: as §1

BMPR1A = BMPR1A (Homo sapiens (Human), UniProt P36894); settings: read-out: percent of control
Procedure: as §1

CAMK1 = CAMK1 (Homo sapiens (Human), UniProt Q14012); settings: read-out: percent of control
CAMK1, sequence (Q14012 whole entry): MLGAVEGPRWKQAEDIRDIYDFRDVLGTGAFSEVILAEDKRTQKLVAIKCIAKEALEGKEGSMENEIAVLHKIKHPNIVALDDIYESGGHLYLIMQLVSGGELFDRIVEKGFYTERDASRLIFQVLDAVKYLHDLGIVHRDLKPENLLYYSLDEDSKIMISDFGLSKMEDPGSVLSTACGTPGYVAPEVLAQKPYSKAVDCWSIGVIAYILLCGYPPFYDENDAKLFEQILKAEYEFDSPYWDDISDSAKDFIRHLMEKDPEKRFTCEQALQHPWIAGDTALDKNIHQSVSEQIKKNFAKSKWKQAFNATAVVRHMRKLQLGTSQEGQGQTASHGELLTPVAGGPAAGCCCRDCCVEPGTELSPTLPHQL
Procedure: as §1

CAMK2B = CAMK2B (Homo sapiens (Human), UniProt Q13554); settings: read-out: percent of control
Procedure: as §1

CAMK2D = CAMK2D (Homo sapiens (Human), UniProt Q13557); settings: read-out: percent of control
Procedure: as §1

CASK = CASK (Homo sapiens (Human), UniProt O14936); settings: read-out: percent of control
Procedure: as §1

CLK2 = CLK2 (Homo sapiens (Human), UniProt P49760); settings: read-out: percent of control
Procedure: as §1

CSNK1A1L = CSNK1A1L (Homo sapiens (Human), UniProt Q8N752); settings: read-out: percent of control
CSNK1A1L, sequence (Q8N752 whole entry): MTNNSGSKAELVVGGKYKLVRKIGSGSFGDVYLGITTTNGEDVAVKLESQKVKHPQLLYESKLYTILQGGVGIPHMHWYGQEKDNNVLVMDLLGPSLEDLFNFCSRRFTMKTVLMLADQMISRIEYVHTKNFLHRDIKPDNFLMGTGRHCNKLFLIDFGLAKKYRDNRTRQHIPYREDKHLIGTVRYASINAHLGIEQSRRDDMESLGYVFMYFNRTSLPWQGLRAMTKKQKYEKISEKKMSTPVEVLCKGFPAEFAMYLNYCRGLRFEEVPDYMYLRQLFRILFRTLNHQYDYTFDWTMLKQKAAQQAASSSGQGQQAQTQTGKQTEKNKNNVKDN
Procedure: as §1

CSNK2A2 = CSNK2A2 (Homo sapiens (Human), UniProt P19784); settings: read-out: percent of control
Procedure: as §1

DLK = DLK (Homo sapiens (Human), UniProt Q12852); settings: read-out: percent of control
Procedure: as §1

EPHB2 = EPHB2 (Homo sapiens (Human), UniProt P29323); settings: read-out: percent of control
EPHB2, sequence (P29323 19-1055): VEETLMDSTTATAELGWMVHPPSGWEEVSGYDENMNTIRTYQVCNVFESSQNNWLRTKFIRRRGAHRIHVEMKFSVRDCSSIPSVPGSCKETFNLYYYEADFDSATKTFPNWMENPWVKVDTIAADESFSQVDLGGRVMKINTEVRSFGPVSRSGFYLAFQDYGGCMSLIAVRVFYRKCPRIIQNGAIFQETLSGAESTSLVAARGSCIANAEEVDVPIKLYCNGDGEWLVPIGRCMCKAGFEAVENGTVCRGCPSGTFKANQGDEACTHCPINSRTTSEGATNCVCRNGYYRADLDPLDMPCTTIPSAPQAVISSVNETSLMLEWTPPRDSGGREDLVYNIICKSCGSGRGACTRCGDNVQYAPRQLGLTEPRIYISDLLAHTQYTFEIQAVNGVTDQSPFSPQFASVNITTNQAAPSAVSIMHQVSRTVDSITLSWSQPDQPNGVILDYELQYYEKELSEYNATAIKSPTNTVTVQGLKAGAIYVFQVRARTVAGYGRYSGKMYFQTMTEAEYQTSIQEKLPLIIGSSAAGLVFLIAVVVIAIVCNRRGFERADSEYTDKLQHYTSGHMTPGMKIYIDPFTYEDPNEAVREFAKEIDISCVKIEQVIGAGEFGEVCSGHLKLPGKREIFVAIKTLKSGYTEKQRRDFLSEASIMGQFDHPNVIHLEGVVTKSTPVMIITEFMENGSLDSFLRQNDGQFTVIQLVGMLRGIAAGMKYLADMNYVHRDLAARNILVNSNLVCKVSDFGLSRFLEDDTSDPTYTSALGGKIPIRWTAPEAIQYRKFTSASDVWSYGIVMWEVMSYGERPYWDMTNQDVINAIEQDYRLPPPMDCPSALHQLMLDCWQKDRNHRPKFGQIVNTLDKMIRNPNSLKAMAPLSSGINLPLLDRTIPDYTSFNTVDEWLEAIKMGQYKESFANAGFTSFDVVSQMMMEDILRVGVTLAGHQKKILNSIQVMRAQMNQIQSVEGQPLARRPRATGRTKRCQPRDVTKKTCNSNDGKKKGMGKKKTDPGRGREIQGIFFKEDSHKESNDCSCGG
Procedure: as §1

EPHB3 = EPHB3 (Homo sapiens (Human), UniProt P54753); settings: read-out: percent of control
Procedure: as §1

FGFR1 = FGFR1 (Homo sapiens (Human), UniProt P11362); settings: read-out: percent of control
Procedure: as §1

FLT3 (D835Y) = FLT3 (D835Y) (Homo sapiens (Human), UniProt P36888, D835Y); settings: read-out: percent of control
Procedure: as §1

FLT3 (ITD) = settings: 1 μM
Procedure: as §1

FLT4 = FLT4 (Homo sapiens (Human), UniProt P35916); settings: read-out: percent of control
Procedure: as §1

GRK2 = GRK2 (Homo sapiens (Human), UniProt P25098); settings: read-out: percent of control
Procedure: as §1

HPK1 = HPK1 (Homo sapiens (Human), UniProt Q92918); settings: read-out: percent of control
Procedure: as §1

KIT(L576P) = KIT(L576P) (Homo sapiens (Human), UniProt P10721, L576P); settings: read-out: percent of control
Procedure: as §1

LRRK2(G2019S) = LRRK2(G2019S) (Homo sapiens (Human), UniProt Q5S007, G2019S); settings: read-out: percent of control
Procedure: as §1

MINK = MINK (Homo sapiens (Human), UniProt Q8N4C8); settings: read-out: percent of control
MINK, sequence (Q8N4C8 whole entry): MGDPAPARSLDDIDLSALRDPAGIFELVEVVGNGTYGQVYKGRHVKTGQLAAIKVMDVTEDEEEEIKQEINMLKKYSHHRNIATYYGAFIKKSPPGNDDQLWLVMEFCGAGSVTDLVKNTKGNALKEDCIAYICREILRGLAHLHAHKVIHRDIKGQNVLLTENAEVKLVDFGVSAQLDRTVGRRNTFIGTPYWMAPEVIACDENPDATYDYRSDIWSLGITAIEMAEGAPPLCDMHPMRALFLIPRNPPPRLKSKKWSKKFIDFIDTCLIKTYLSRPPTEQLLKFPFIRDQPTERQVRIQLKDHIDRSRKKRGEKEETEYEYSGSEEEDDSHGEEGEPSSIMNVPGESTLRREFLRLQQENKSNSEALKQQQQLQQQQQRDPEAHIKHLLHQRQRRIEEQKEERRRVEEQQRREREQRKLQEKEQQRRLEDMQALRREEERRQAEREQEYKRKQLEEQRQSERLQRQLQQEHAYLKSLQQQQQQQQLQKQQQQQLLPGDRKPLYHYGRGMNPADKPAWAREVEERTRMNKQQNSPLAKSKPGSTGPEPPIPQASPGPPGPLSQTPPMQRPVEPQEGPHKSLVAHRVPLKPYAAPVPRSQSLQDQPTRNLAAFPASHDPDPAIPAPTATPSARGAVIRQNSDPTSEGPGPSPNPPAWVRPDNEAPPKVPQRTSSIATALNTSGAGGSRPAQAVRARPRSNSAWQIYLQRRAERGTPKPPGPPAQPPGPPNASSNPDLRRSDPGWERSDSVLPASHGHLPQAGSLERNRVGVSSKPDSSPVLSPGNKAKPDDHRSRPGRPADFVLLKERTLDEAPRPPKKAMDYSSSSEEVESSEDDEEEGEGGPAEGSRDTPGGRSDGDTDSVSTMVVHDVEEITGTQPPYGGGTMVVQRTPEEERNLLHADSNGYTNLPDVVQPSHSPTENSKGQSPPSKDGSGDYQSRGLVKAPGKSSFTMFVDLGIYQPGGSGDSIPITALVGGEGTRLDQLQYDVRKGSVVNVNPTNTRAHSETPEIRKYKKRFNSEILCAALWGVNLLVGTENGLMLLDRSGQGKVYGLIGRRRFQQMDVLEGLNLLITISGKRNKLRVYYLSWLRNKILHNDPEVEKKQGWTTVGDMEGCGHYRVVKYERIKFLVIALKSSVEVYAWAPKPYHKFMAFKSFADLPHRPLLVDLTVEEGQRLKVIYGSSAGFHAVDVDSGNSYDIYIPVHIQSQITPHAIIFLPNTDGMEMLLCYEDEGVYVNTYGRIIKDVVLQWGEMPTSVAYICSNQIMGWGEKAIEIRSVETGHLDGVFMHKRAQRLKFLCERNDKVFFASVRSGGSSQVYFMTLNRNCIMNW
Procedure: as §1

MLCK = MLCK (Homo sapiens (Human), UniProt Q32MK0); settings: read-out: percent of control
Procedure: as §1

MYLK4 = MYLK4 (Homo sapiens (Human), UniProt Q86YV6); settings: read-out: percent of control
MYLK4, sequence (Q86YV6 whole entry): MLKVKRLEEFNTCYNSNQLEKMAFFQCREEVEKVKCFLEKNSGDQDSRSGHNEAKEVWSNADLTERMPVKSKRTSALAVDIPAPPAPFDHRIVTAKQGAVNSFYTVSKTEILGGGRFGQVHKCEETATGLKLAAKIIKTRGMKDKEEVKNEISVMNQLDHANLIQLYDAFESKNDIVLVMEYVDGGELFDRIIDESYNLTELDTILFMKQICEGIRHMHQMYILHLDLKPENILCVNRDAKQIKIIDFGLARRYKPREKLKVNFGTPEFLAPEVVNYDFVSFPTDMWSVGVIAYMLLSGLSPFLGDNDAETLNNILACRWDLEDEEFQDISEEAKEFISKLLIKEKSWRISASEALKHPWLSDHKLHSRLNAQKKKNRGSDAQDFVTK
Procedure: as §1

NEK10 = NEK10 (Homo sapiens (Human), UniProt Q6ZWH5); settings: read-out: percent of control
Procedure: as §1

NEK4 = NEK4 (Homo sapiens (Human), UniProt P51957); settings: read-out: percent of control
Procedure: as §1

PHKG1 = PHKG1 (Homo sapiens (Human), UniProt Q16816); settings: read-out: percent of control
Procedure: as §1

PIK3C2B = PIK3C2B (Homo sapiens (Human), UniProt O00750); settings: read-out: percent of control
Procedure: as §1

PIK3CA(H1047Y) = PIK3CA(H1047Y) (Homo sapiens (Human), UniProt P42336, H1047Y); settings: read-out: percent of control
Procedure: as §1

PIK3CB = PIK3CB (Homo sapiens (Human), UniProt P42338); settings: read-out: percent of control
Procedure: as §1

PIP5K1C = PIP5K1C (Homo sapiens (Human), UniProt O60331); settings: read-out: percent of control
PIP5K1C, sequence (O60331 whole entry): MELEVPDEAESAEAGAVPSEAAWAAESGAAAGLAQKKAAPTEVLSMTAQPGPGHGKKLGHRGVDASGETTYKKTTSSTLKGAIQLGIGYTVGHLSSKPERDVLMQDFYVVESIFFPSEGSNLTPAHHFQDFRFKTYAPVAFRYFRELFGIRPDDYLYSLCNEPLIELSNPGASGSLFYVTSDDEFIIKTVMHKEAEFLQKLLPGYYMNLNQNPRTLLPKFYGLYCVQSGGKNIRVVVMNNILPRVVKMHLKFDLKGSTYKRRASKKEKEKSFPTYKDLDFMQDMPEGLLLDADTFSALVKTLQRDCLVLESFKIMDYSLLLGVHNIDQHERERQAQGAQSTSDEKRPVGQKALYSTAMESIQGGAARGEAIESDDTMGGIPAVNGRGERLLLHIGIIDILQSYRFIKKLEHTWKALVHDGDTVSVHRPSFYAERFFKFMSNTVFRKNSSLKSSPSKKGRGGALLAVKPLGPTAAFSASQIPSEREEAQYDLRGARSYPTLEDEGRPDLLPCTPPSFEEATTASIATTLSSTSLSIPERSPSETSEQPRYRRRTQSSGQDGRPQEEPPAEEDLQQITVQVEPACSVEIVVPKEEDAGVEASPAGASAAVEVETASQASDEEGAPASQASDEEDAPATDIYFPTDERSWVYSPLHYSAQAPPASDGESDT
Procedure: as §1

PKAC-beta = PKAC-beta (Homo sapiens (Human), UniProt P22694); settings: read-out: percent of control
Procedure: as §1

[1] = target: RPS6KA5 (Kin.Dom.2-C-terminal) (Homo sapiens (Human), UniProt O75582); settings: read-out: percent of control
RPS6KA5 (Kin.Dom.2-C-terminal), sequence (O75582 426-687): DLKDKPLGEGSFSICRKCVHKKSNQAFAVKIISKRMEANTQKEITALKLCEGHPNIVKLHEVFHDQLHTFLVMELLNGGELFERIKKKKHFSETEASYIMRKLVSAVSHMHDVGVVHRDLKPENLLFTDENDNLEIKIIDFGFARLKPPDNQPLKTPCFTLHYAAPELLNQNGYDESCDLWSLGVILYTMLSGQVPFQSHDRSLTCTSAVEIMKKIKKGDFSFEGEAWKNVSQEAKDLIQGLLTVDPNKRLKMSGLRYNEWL
Procedure: as §1

[2] = target: RSK1 (Kin.Dom.2-C-terminal) (Homo sapiens (Human), UniProt Q15418); settings: read-out: percent of control
Procedure: as §1

STK16 = STK16 (Homo sapiens (Human), UniProt O75716); settings: read-out: percent of control
Procedure: as §1

STK39 = STK39 (Homo sapiens (Human), UniProt Q9UEW8); settings: read-out: percent of control
Procedure: as §1

TESK1 = TESK1 (Homo sapiens (Human), UniProt Q15569); settings: read-out: percent of control
TESK1, sequence (Q15569 whole entry): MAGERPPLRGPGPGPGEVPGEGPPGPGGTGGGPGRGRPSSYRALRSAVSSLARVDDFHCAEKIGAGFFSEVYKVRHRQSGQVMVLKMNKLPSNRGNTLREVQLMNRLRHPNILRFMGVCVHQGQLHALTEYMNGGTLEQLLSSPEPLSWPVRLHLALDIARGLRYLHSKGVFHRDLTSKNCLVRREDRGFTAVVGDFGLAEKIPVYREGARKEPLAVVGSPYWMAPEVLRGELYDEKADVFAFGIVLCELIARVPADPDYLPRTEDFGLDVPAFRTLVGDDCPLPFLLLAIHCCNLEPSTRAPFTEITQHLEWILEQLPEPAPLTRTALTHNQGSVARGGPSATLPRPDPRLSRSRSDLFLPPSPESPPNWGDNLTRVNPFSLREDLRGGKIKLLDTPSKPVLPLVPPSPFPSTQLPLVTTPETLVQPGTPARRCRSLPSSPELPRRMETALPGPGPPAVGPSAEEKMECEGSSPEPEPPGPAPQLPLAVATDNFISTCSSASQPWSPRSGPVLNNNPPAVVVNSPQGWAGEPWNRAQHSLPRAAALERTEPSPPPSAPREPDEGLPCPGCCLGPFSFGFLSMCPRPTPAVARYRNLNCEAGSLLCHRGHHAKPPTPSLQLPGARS
Procedure: as §1

TGFBR2 = TGFBR2 (Homo sapiens (Human), UniProt P37173); settings: read-out: percent of control
Procedure: as §1

SMILES	remaining binding at 1 µM (AAKI) [%]	remaining binding at 1 µM (ANKK1) [%]	remaining binding at 1 µM (BMPR1A) [%]	remaining binding at 1 µM (CAMK1) [%]	remaining binding at 1 µM (CAMK2B) [%]	remaining binding at 1 µM (CAMK2D) [%]	remaining binding at 1 µM (CASK) [%]	remaining binding at 1 µM (CLK2) [%]	remaining binding at 1 µM (CSNK1A1L) [%]	remaining binding at 1 µM (CSNK2A2) [%]	remaining binding at 1 µM (DLK) [%]	remaining binding at 1 µM (EPHB2) [%]	remaining binding at 1 µM (EPHB3) [%]	remaining binding at 1 µM (FGFR1) [%]	remaining binding at 1 µM (FLT3 (D835Y)) [%]	percent of control (FLT3 (ITD)) [%]	remaining binding at 1 µM (FLT4) [%]	remaining binding at 1 µM (GRK2) [%]	remaining binding at 1 µM (HPK1) [%]	remaining binding at 1 µM (KIT(L576P)) [%]	other results
CCN1CCN(Cc2cc(NC(=O)c3ccc(C)c(-c4ccc5nc(NC(=O)C6CC6)cn5n4)c3)cc(C(F)(F)F)c2)CC1 [Compound I-2, 3-(2-(cyclopropanecarboxamido)imidazo[1,2-b]pyridazin-6-yl)-N-(3-((4-ethylpiperazin-1-yl)methyl)-5-(trifluoromethyl)phenyl)-4-methylbenzamide]	100	100	99	92	100	100	86	48	100	94	15	0	30	77	23	1.6	0.05	94	0.1	0	remaining binding at 1 µM (LRRK2(G2019S)): 84%; remaining binding at 1 µM (MINK): 0.6%; remaining binding at 1 µM (MLCK): 93%; remaining binding at 1 µM (MYLK4): 96%; remaining binding at 1 µM (NEK10): 75%; remaining binding at 1 µM (NEK4): 28%; remaining binding at 1 µM (PHKG1): 99%; remaining binding at 1 µM (PIK3C2B): 100%; remaining binding at 1 µM (PIK3CA(H1047Y)): 82%; remaining binding at 1 µM (PIK3CB): 100%; remaining binding at 1 µM (PIP5K1C): 85%; remaining binding at 1 µM (PKAC-beta): 92%; remaining binding at 1 µM [1]: 100%; remaining binding at 1 µM [2]: 100%; remaining binding at 1 µM (STK16): 90%; remaining binding at 1 µM (STK39): 74%; remaining binding at 1 µM (TESK1): 100%; remaining binding at 1 µM (TGFBR2): 90%
CCN1CCN(Cc2cc(NC(=O)c3ccc(C)c(-c4ccc5nc(NC(=O)C6CC6)cn5c4)c3)cc(C(F)(F)F)c2)CC1 [Compound I-6, 3-(2-(cyclopropanecarboxamido)imidazo[1,2-a]pyridin-6-yl)-N-(3-((4-ethylpiperazin-1-yl)methyl)-5-(trifluoromethyl)phenyl)-4-methylbenzamide]	89	100	92	95	100	92	85	100	97	100	26	0	35	57	27	1.4	0.3	63	0.75	1.8	remaining binding at 1 µM (LRRK2(G2019S)): 100%; remaining binding at 1 µM (MINK): 2.4%; remaining binding at 1 µM (MLCK): 85%; remaining binding at 1 µM (MYLK4): 100%; remaining binding at 1 µM (NEK10): 62%; remaining binding at 1 µM (NEK4): 15%; remaining binding at 1 µM (PHKG1): 93%; remaining binding at 1 µM (PIK3C2B): 100%; remaining binding at 1 µM (PIK3CA(H1047Y)): 92%; remaining binding at 1 µM (PIK3CB): 94%; remaining binding at 1 µM (PIP5K1C): 94%; remaining binding at 1 µM (PKAC-beta): 78%; remaining binding at 1 µM [1]: 98%; remaining binding at 1 µM [2]: 96%; remaining binding at 1 µM (STK16): 95%; remaining binding at 1 µM (STK39): 93%; remaining binding at 1 µM (TESK1): 97%; remaining binding at 1 µM (TGFBR2): 86%

Reference: patent US20230391768A2, “IMIDAZOPYRIDINE DERIVATIVES AND AZA-IMIDAZOPYRIDINE DERIVATIVES AS JANUS KINASE 2 INHIBITORS AND USES THEREOF” (Dana-Farber Cancer Institute, Inc., priority 2018, published 2023)
